This is an account of results in patent US11111237B2, “Bicyclic compound and use thereof” (SK BIOPHARMACEUTICALS CO., LTD., priority 2019, dated 2021).

Structures can show the parent of a compound that is named as a salt.

In general, IC50 refers to the concentration that gives 50% inhibition. A low value points to inhibition by little substance.

Sequence of PRMT5-MEP50 enzyme complex (O14744 2-637): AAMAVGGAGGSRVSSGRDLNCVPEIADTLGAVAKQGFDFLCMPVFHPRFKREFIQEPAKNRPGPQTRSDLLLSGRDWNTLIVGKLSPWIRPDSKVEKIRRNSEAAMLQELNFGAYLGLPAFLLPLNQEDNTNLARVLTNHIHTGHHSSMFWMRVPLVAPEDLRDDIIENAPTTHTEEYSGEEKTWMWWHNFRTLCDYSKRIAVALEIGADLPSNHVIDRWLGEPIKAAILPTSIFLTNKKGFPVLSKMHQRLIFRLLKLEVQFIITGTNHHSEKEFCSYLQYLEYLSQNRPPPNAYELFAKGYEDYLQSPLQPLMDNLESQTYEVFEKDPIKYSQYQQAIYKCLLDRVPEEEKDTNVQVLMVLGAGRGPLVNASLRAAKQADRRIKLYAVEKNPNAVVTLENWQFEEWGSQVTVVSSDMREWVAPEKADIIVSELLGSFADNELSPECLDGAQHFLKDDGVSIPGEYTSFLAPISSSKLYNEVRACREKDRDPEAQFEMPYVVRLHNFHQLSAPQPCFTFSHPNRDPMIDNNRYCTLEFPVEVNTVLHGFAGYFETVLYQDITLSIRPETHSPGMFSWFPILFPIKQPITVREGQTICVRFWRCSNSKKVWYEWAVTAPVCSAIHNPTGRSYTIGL
Sequence of PRMT5-MEP50 enzyme complex (Q9BQA1 2-342 partner): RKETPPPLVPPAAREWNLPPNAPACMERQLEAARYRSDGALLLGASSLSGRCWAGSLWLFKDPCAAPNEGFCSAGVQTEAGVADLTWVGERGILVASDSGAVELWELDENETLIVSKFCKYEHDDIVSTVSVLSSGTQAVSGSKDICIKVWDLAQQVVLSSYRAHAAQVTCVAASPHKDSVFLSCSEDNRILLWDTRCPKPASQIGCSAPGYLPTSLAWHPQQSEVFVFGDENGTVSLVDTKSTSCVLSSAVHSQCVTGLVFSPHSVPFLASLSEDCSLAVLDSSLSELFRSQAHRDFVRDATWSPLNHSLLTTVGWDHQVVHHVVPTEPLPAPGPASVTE

The test concerns the target PRMT5-MEP50 enzyme complex (Homo sapiens (Human), UniProt O14744). Nature of the test: PRMT5 enzyme activity in vitro assay (methylation of histone H4R3, ELISA absorbance at 450 nm). The class given is biochemical. As to conditions: SAM, histone H4 peptide, room temperature 2 hours, 8 points from 10 μM to 0.128 nM. On the procedure:
Method for Measuring Enzyme Activity
In vitro assay: PRMT5-MEP50 enzyme complex, cofactor S-adenosylmethionine (SAM) and histone H4 peptide were reacted in vitro, and methylation of arginine (H4R3)—which is the third amino acid of histone H4—was measured in order to measure the enzyme activity of PRMT5.
Reagents: PRMT5-MEP50 enzyme complex (Catalog No. 51045), blocking buffer (52100-B), histone methyltransferase reaction buffer 2 (4×HMT assay buffer 2, Catalog No. 52170), and primary antibody (primary antibody 4-3, Catalog No. 52150) were purchased from BPS Bioscience (USA). The histone H4 peptide (1-20 amino acids) was custom made by Komabiotech (Korea) and used. S-adenosylmethionine was purchased from NEB (New England Biolabs, USA, Catalog No. B9003S). Plates for coating histone H4 peptide, washing buffer and color development reagent were purchased from the following vendors: Plate (Immobilizer™-Amino Plate, NUNC, Denmark, Catalog No. 436023), carbonate-bicarbonate buffer (Sigma-Aldrich, USA, Catalog No. C3041), washing buffer (10×TBST, Biosesang, Korea, Catalog No. T2005), TMB ELISA substrate (Abcam, UK, Catalog No. ab210902), horseradish peroxidase (HRP)-conjugated antibody (Abcam, UK, Catalog No. ab6721).
Experimental procedure: The histone H4 peptide was diluted with carbonate-bicarbonate buffer and prepared to 100 μg/mL, and then dispensed onto the plate per 100 μL and reacted at 37° C. for 1 hour. PRMT5-MEP50 enzyme complex and S-adenosylmethionine were diluted with histone methyltransferase reaction buffer to prepare 5 μg/mL and 2 μM, respectively, and then 20 μL of PRMT5-MEP50 enzyme complex and 25 μL of S-adenosylmethionine were dispensed onto the plate prepared above. 5 μL of the compound diluted with 10% dimethyl sulfoxide solution was added thereto and reacted at room temperature for 2 hours (final volume=50 μL). The concentration of the compound was diluted 1:5 from 10 μM until the lowest concentration of 0.128 nM, and 8 points were used for the test. After preparing the primary antibody by diluting 1:2000 with blocking buffer, 100 μL was added to the plate and reacted at room temperature for 1 hour. After preparing horseradish peroxidase-conjugated antibody by diluting 1:10,000 with blocking buffer, 100 μL was added to the plate and reacted at room temperature for 1 hour. 100 μL of TMB substrate was added and reacted for 3 minutes at room temperature, and 100 μL of 1 N sulfuric acid was then added to terminate the reaction. Then, the absorbance at 450 nm was measured to calculate the IC50 value of the compound. (+++: 1 to 100 nM, ++: greater than 100 to 1,000 nM, +: greater than 1,000 to 10,000 nM)
(An ELISA detects its analyte on a solid surface through an enzyme-linked reagent.)
In turn, `O=C1c2ccc(Cl)cc2CCCN1C[C@H](O)CN1CCc2ccccc2C1` [Example 154, 7-chloro-2-[(2R)-3-(3,4-dihydro-1H-isoquinolin-2-yl)-2-hydroxy-propyl]-4,5-dihydro-3H-2-benzazepin-1-one] came in with an IC50 of 1 to 100 nM.

`O=C1c2ccc(CN3CCCC(F)(F)C3)cc2OCCN1C[C@H](O)CN1CCc2ccccc2C1` [Example 42, 8-[(3,3-difluoro-1-piperidyl)methyl]-4-[(2R)-3-(3,4-dihydro-1H-isoquinolin-2-yl)-2-hydroxy-propyl]-2,3-dihydro-1,4-benzoxazepin-5-one] registered an IC50 of 100 to 1000 nM. For the molecule `CN1CCN(C[C@H](O)CN2CCc3ccccc3C2)C(=O)c2ccc(OC3CCN(C4CCOC4)CC3)cc21` (stereo partly drawn) [Example 128, 4-[(2R)-3-(3,4-dihydro-1H-isoquinolin-2-yl)-2-hydroxy-propyl]-1-methyl-8-[(1-tetrahydrofuran-3-yl-4-piperidyl)oxy]-2,3-dihydro-1,4-benzodiazepin-5-one], the IC50 was in the range of 100 to 1000 nM.

`O=C(c1ccc2c(c1)OCCN(C[C@H](O)CN1CCc3ccccc3C1)C2=O)C1CC1` [Example 216, 8-(cyclopropanecarbonyl)-4-[(2R)-3-(3,4-dihydro-1H-isoquinolin-2-yl)-2-hydroxy-propyl]-2,3-dihydro-1,4-benzoxazepin-5-one]: the IC50 lay in the range of 1 to 100 nM. In turn, `CN1CCC[C@H](Oc2ccc3c(c2)OCCN(C[C@H](O)CN2CCc4ccccc4C2)C3=O)C1` [Example 213, 4-[(2R)-3-(3,4-dihydro-1H-isoquinolin-2-yl)-2-hydroxy-propyl]-8-[(1-methyl-3-piperidyl)oxy]-2,3-dihydro-1,4-benzoxazepin-5-one] registered an IC50 of 100 to 1000 nM. Molecule `O=C1c2ccc(OCc3cc(Cl)nc(Cl)c3)cc2OCCN1C[C@H](O)CN1CCc2ccccc2C1` [Example 59, 8-[(2,6-dichloro-4-pyridyl)methoxy]-4-[(2R)-3-(3,4-dihydro-1H-isoquinolin-2-yl)-2-hydroxy-propyl]-2,3-dihydro-1,4-benzoxazepin-5-one] showed an IC50 of 100 to 1000 nM. `O=C1c2ccc(C#CCO)cc2OCCN1C[C@H](O)CN1CCc2ccccc2C1` [Example 223, 4-[(2R)-3-(3,4-dihydro-1H-isoquinolin-2-yl)-2-hydroxy-propyl]-8-(3-hydroxypro-1-pynyl)-2,3-dihydro-1,4-benzoxazepin-5-one] had an IC50 of 100 to 1000 nM. With `CC1CN(C[C@H](O)CN2CCc3ccccc3C2)C(=O)c2ccc(OC3CCNCC3)cc2O1` (stereo partly drawn) [Example 140, 4-[(2R)-3-(3,4-dihydro-1H-isoquinolin-2-yl)-2-hydroxypropyl]-2-methyl-8-(4-piperidyloxy)-2,3-dihydro-1,4-benzoxazepin-5-one di hydrochloride], the IC50 was in the range of 100 to 1000 nM. In turn, `CC(=O)N1CC(Oc2ccc3c(c2)OC(C)(C)CN(C[C@H](O)CN2CCc4ccccc4C2)C3=O)C1` [Example 114, 8-(1-acetylazetidin-3-yl)oxy-4-[(2R)-3-(3,4-dihydro-1H-isoquinolin-2-yl)-2-hydroxy-propyl]-2,2-dimethyl-3H-1,4-benzoxazepin-5-one] displayed an IC50 of 1 to 100 nM. The result for `CCN(CC)Cc1ccc2c(c1)OCCN(C[C@H](O)CN1CCc3ccccc3C1)C2=O` [Example 26, 8-(diethylaminomethyl)-4-[(2R)-3-(3,4-dihydro-1H-isoquinolin-2-yl)-2-hydroxy-propyl]-2,3-dihydro-1,4-benzoxazepin-5-one] reads 100 to 1000 nM; that for `O=C1c2ccc(CN3CCC(F)CC3)cc2OCCN1C[C@H](O)CN1CCc2ccccc2C1` [Example 32, 4-[(2R)-3-(3,4-dihydro-1H-isoquinolin-2-yl)-2-hydroxy-propyl]-8-[(4-fluoro-1-piperidyl)methyl]-2,3-dihydro-1,4-benzoxazepin-5-one], 1 to 100 nM.

Turning to `CC1CC(C)CN(Cc2ccc3c(c2)OCCN(C[C@H](O)CN2CCc4ccccc4C2)C3=O)C1` (stereo partly drawn) [Example 33, 4-[(2R)-3-(3,4-dihydro-1H-isoquinolin-2-yl)-2-hydroxy-propyl]-8-[(3,5-dimethyl-1-piperidyl)methyl]-2,3-dihydro-1,4-benzoxazepin-5-one], the IC50 fell in the range of 100 to 1000 nM. In the case of `O=C1c2ccc(CN3CCCC(O)C3)cc2OCCN1C[C@H](O)CN1CCc2ccccc2C1` (stereo partly drawn) [Example 44, 4-[(2R)-3-(3,4-dihydro-1H-isoquinolin-2-yl)-2-hydroxy-propyl]-8-[(3-hydroxy-1-piperidyl)methyl]-2,3-dihydro-1,4-benzoxazepin-5-one], the IC50 is 1 to 100 nM. In the case of `O=C1c2ccc(OC(F)(F)F)cc2CCCN1CC(O)CN1CCc2ccccc2C1` (stereo not shown) [Example 4, 2-[3-(3,4-dihydro-1H-isoquinolin-2-yl)-2-hydroxy-propyl]-7-(trifluoromethoxy)-4,5-dihydro-3H-2-benzazepin-1-one], the IC50 is 100 to 1000 nM. The result for `O=C1c2ccc(C(=O)N3CC4CCC3C4)cc2OCCN1C[C@H](O)CN1CCc2ccccc2C1` (stereo partly drawn) [Example 188, 8-(2-azabicyclo[2.2.1]heptane-2-carbonyl)-4-[(2R)-3-(3,4-dihydro-1H-isoquinolin-2-yl)-2-hydroxy-propyl]-2,3-dihydro-1,4-benzoxazepin-5-one] reads 100 to 1000 nM; that for `CN1CCN(C[C@H](O)CN2CCc3ccccc3C2)C(=O)c2ccc(C3=CCC(C(F)(F)F)CC3)cc21` (stereo partly drawn) [Example 119, 4-[(2R)-3-(3,4-dihydro-1H-isoquinolin-2-yl)-2-hydroxy-propyl]-1-methyl-8-[4-(trifluoromethyl)cyclohexen-1-yl]-2,3-dihydro-1,4-benzodiazepin-5-one], 100 to 1000 nM. As to `O=C1c2ccc(OC3CCN(CCO)CC3)cc2OCCN1C[C@H](O)CN1CCc2ccccc2C1` [Example 162, 4-[(2R)-3-(3,4-dihydro-1H-isoquinolin-2-yl)-2-hydroxy-propyl]-8-[[1-(2-hydroxyethyl)-4-piperidyl]oxy]-2,3-dihydro-1,4-benzoxazepin-5-one], the IC50 lay within 100 to 1000 nM. Then `O=C1c2ccc(OCC3CCCO3)cc2OCCN1C[C@H](O)CN1CCc2ccccc2C1` (stereo partly drawn) [Example 67, 4-[(2R)-3-(3,4-dihydro-1H-isoquinolin-2-yl)-2-hydroxy-propyl]-8-(tetrahydrofuran-2-ylmethoxy)-2,3-dihydro-1,4-benzoxazepin-5-one], with 100 to 1000 nM.

In turn, `O=C1c2ccc(OC3CCN(CCF)CC3F)cc2OCCN1C[C@H](O)CN1CCc2ccccc2C1` (stereo partly drawn) [Example 207, 4-[(2R)-3-(3,4-dihydro-1H-isoquinolin-2-yl)-2-hydroxy-propyl]-8-[[3-fluoro-1-(2-fluoroethyl)-4-piperidyl]oxy]-2,3-dihydro-1,4-benzoxazepin-5-one] registered an IC50 of 100 to 1000 nM. The result for `O=C1c2ccc(OC3CN(C(=O)C(F)F)C3)cc2OCCN1C[C@H](O)CN1CCc2ccccc2C1` [Example 161] reads 1 to 100 nM; that for `O=C1c2ccc(OCc3ccnc(F)c3F)cc2OCCN1C[C@H](O)CN1CCc2ccccc2C1` [Example 60, 8-[(2,3-difluoro-4-pyridyl)methoxy]-4-[(2R)-3-(3,4-dihydro-1H-isoquinolin-2-yl)-2-hydroxy-propyl]-2,3-dihydro-1,4-benzoxazepin-5-one], 100 to 1000 nM; that for `O=C1c2ccc(OCC3CCCCO3)cc2OCCN1C[C@H](O)CN1CCc2ccccc2C1` (stereo partly drawn) [Example 65, 4-[(2R)-3-(3,4-dihydro-1H-isoquinolin-2-yl)-2-hydroxy-propyl]-8-(tetrahydropyran-2-ylmethoxy)-2,3-dihydro-1,4-benzoxazepin-5-one], 100 to 1000 nM.

On to `CCN1CC2(CC(Oc3ccc4c(c3)OCCN(C[C@H](O)CN3CCc5ccccc5C3)C4=O)C2)C1` [Example 172, 4-[(2R)-3-(3,4-dihydro-1H-isoquinolin-2-yl)-2-hydroxy-propyl]-8-[(2-ethyl-2-azaspiro[3.3]heptan-6-yl)oxy]-2,3-dihydro-1,4-benzoxazepin-5-one], for which the IC50 lay within 100 to 1000 nM. In turn, `O=C1c2ccc(C(F)(F)F)cc2OCCN1C[C@H](O)CN1CCc2ccccc2C1` [Example 5, 4-[(2R)-3-(3,4-dihydro-1H-isoquinolin-2-yl)-2-hydroxy-propyl]-8-(trifluoromethyl)-2,3-dihydro-1,4-benzoxazepin-5-one] gave an IC50 of 100 to 1000 nM. Molecule `O=C1c2ccc(CCC(F)(F)F)cc2OCCN1C[C@H](O)CN1CCc2ccccc2C1` [Example 13, 4-[(2R)-3-(3,4-dihydro-1H-isoquinolin-2-yl)-2-hydroxy-propyl]-8-(3,3,3-trifluoropropyl)-2,3-dihydro-1,4-benzoxazepin-5-one] registered an IC50 of 1 to 100 nM.
